Structures are written as SMILES. Where two headings read alike, the source gives them in different places.

The text below walks through data of patent US7238697B2, “Pyridylpyrimidines for use as pesticides” (Bayer CropScience AG, priority 2001, dated 2007).

This data set can be described thus: log P determination by HPLC (reversed-phase C18), EEC Directive 79/831 Annex V.A8. In kind it is physicochemical. The note with it: pH 2.3, HPLC, reversed-phase C 18, 43° C., 0.1% aqueous phosphoric acid/acetonitrile, read-out: log P (pH 2.3). As for the experimental part: The stated log P values were determined in accordance with EEC Directive 79/831 Annex V.A8 by HPLC (High Performance Liquid Chromatography) using a reversed-phase column, (C 18). Temperature: 43° C. Mobile phases for the determination in the acidic range: 0.1% aqueous phosphoric acid, acetonitrile; linear gradient from 10% acetonitrile to 90% acetonitrile. Calibration was carried out using unbranched alkan-2-ones (having 3 to 16 carbon atoms) with known logP values (determination of the logP values by the retention times using linear interpolation between two successive alkanones).

With `CCOC(=O)CSc1nccc(-c2ncccc2OC)n1` [Example 268], for the setting “reversed-phase C18 HPLC column”, the chromatographic logP was found to be 1.34. On the same count and under the same terms, for `CC(C)(C)OC(=O)CSc1nccc(-c2ccccn2)n1` [Example 35] the value was 2.96; for `CCOC(=O)C1CC1COC(=O)CSc1nccc(-c2ccccn2)n1` (centres unmarked) [Example 199], 2.64. Turning to `CC(C)/C=N/CCOC(=O)CSc1nccc(-c2ccccn2)n1` [Example 191], under “reversed-phase C18 HPLC column”, the chromatographic logP came to 2.02. Consider `CCOC(=O)/C=C(/CSc1nccc(-c2ccccn2)n1)OCC` [Example 311], for which the chromatographic logP (reversed-phase C18 HPLC column) stood at 3.39.

In the case of `N#Cc1ccc(NC(=O)NCCCOC(=O)CSc2nccc(-c3ccccn3)n2)cc1` [Example 152], the chromatographic logP (reversed-phase C18 HPLC column) turned out to be 2.45. Still for that read-out and setting: for `N#CCCCCOC(=O)CSc1nccc(-c2ccccn2)n1` [Example 95] the value was 2.29. Same read-out and setting: the figure for `COC(=O)CCSc1nccc(-c2ccccn2)n1` [Example 78] is 2.13; for `CCOC(=S)CSc1nccc(-c2ccccn2)n1` [Example 115] it is 3.3; for `CC(C)(C)OC(=O)CCCOC(=O)CSc1nccc(-c2ccccn2)n1` [Example 94] it is 3.48. The same measure, in the same setting: the figure for `O=C(CSc1nccc(-c2ccccn2)n1)NCc1cccc(C(F)(F)F)c1` [Example 46] is 2.62; for `C=CC(C)(C)COC(=O)CSc1nccc(-c2ccccn2)n1` [Example 168] it is 3.48. With `COC(=O)CSc1nc(-c2ccccn2)cc(C(C)C)n1` [Example 112], where the note is “reversed-phase C18 HPLC column”, the chromatographic logP stood at 3.11.

For `CCOC(=O)C(C)OC(=O)CSc1nccc(-c2ccccn2)n1` (centres unmarked) [Example 22], where the note is “reversed-phase C18 HPLC column”, the chromatographic logP turned out to be 2.58.

Regarding `CC(C)(C)SC(=O)CSc1nccc(-c2ccccn2)n1` [Example 312], the chromatographic logP (reversed-phase C18 HPLC column) was 3.61. Still for that read-out and setting: the figure for `CCNC(=S)NCCOC(=O)CSc1nccc(-c2ccccn2)n1` [Example 172] is 1.79; for `CNC(=O)NCCCOC(=O)CSc1nccc(-c2ccccn2)n1` [Example 213] it is 1.42; for `COC(=O)CSc1nc(-c2ccc(OC)cc2)cc(-c2ccccn2)n1` [Example 107] it is 3.5.

Turning to `CCC1(COC(=O)CSc2nccc(-c3ccccn3)n2)CCO1` (centres unmarked) [Example 198], the chromatographic logP (reversed-phase C18 HPLC column) came to 2.2. Regarding `Cn1ccnc1COC(=O)CSc1nccc(-c2ccccn2)n1` [Example 201], under “reversed-phase C18 HPLC column”, the chromatographic logP is 1.02. The same measure, in the same setting: the figure for `CC(NC(=O)CSc1nccc(-c2ccccn2)n1)c1ccc(C(C)(C)C)cc1` (centres unmarked) [Example 43] is 3.4. The same measure, in the same setting: for `O=C(CSc1nccc(-c2ccccn2)n1)OC1CCCCC1` [Example 21] the value was 3.53; for `CC(C)NC(=O)OCCOC(=O)CSc1nccc(-c2ccccn2)n1` [Example 245], 2.19. In the case of `Cc1cnn(CCOC(=O)CSc2nccc(-c3ccccn3)n2)n1` [Example 176], under “reversed-phase C18 HPLC column”, the chromatographic logP was determined as 1.93. On the same count and under the same terms, the figure for `CCOC(=O)CSc1nccc(-c2ccc(SC)cn2)n1` [Example 317] is 1.68.

On to `O=C(CSc1nccc(-c2ccccn2)n1)NCc1ccc(SC(F)(F)F)cc1` [Example 37], for which, for the setting “reversed-phase C18 HPLC column”, the chromatographic logP amounted to 2.93. On the same count and under the same terms, the figure for `O=C(CSc1nccc(-c2ccccn2)n1)NCc1ccc(F)c(Cl)c1` [Example 48] is 2.42. The same measure, in the same setting: the figure for `N#Cc1ccc(NC(=O)NCCOC(=O)CSc2nccc(-c3ccccn3)n2)cc1` [Example 146] is 2.3; for `CCCCCCCCCCCCOC(=O)CSc1nccc(-c2ccccn2)n1` [Example 86] it is 7.22. The same measure, in the same setting: the figure for `O=C(CSc1nccc(-c2ccccn2)n1)N1CCOCC1` [Example 65] is 1.55. With `C=CC(=O)OCCCOC(=O)CSc1nccc(-c2ccccn2)n1` [Example 224], where the note is “reversed-phase C18 HPLC column”, the chromatographic logP was determined as 2.49.

Take `O=C(CSc1nccc(-c2ccccn2)n1)OCCc1ccncc1` [Example 204]: the chromatographic logP (reversed-phase C18 HPLC column) was determined as 1.2.

In the case of `NC(=O)CSc1nccc(-c2ccccn2)n1` [Example 29], the chromatographic logP (reversed-phase C18 HPLC column) was 0.69. Still for that read-out and setting: the figure for `CCOC(=O)CSc1nccc(-c2ccc(C(F)(F)F)cn2)n1` [Example 257] is 3.48; for `COC(=O)CC(=O)CSc1nccc(-c2ccccn2)n1` [Example 14] it is 1.76.

As to `COC(=O)/C=C(/CSc1nccc(-c2ccccn2)n1)OC` [Example 31], the chromatographic logP (reversed-phase C18 HPLC column) was 2.7.

As for `Cc1scnc1CCOC(=O)CSc1nccc(-c2ccccn2)n1` [Example 197], the chromatographic logP (reversed-phase C18 HPLC column) stood at 1.79.

`O=C(CSc1nccc(-c2ccccn2)n1)NC1CC1` [Example 69]: the chromatographic logP (reversed-phase C18 HPLC column) is 1.56. As to `O=C(CSc1nccc(-c2ccccn2)n1)NCc1cc(C(F)(F)F)cc(C(F)(F)F)c1` [Example 137], the chromatographic logP (reversed-phase C18 HPLC column) was found to be 3.22. For `COC(=O)C(Sc1nccc(-c2ccccn2)n1)C(C)=O` (centres unmarked) [Example 23], for the setting “reversed-phase C18 HPLC column”, the chromatographic logP is 2.34. The same measure, in the same setting: the figure for `CC(C)CCOC(=O)CSc1nccc(-c2ccccn2)n1` [Example 89] is 3.56.

Regarding `COC(C)(C)COC(=O)CSc1nccc(-c2ccccn2)n1` [Example 179], the chromatographic logP (reversed-phase C18 HPLC column) worked out at 2.29. On the same count and under the same terms, for `CSc1nccc(-c2ccccn2)n1` [2-(methylthio)-4-(2-pyridinyl)pyrimidine] the value was 1.93. Same read-out and setting: the figure for `O=C(CSc1nccc(-c2ccccn2)n1)OCC(Cl)(Cl)Cl` [Example 125] is 3.31; for `COc1ccc(CNC(=O)CSc2nccc(-c3ccccn3)n2)cc1` [Example 55] it is 2; for `COC(=O)C(Sc1nccc(-c2ccccn2)n1)C(=O)OC` [Example 24] it is 2.16. The same measure, in the same setting: the figure for `NNC(=O)CSc1nccc(-c2ccccn2)n1` [Example 134] is 0.43; for `CC(C)N1CCN(C(=O)CSc2nccc(-c3ccccn3)n2)CC1` [Example 58] it is 0.95; for `Cc1c(NC(=O)CSc2nccc(-c3ccccn3)n2)cccc1[N+](=O)[O-]` [Example 313] it is 2.28. As to `O=C(CSc1nccc(-c2ccccn2)n1)NCc1ccco1` [Example 64], the chromatographic logP (reversed-phase C18 HPLC column) was found to be 1.82.

As to `CSCC(C)(C)COC(=O)CSc1nccc(-c2ccccn2)n1` [Example 186], the chromatographic logP (reversed-phase C18 HPLC column) came out at 3.46.

`CCOC(=O)CSc1nccc(-c2ccc(CC)cn2)n1` [Example 254]: the chromatographic logP (reversed-phase C18 HPLC column) came out at 2.98. Same read-out and setting: the figure for `CC(C)(C)OC(=O)NCCCOC(=O)CSc1nccc(-c2ccccn2)n1` [Example 142] is 2.79; for `O=C(CSc1nccc(-c2ccccn2)n1)NCCc1ccc(OC(F)(F)F)cc1` [Example 38] it is 2.96. As to `O=C(CSc1nccc(-c2ccccn2)n1)OCC(F)(F)C(F)(F)C(F)(F)F` [Example 119], the chromatographic logP was found to be 3.37. Turning to `CCOC(=O)C(C)Sc1nccc(-c2ccccn2)n1` (centres unmarked) [Example 2, ethyl-2-{[4-(2-pyridinyl)-2-pyrimidinyl]thio}-propanoate], the chromatographic logP (reversed-phase C18 HPLC column) stood at 2.74.

On to `CCCCOC(=O)CSc1nccc(-c2ccccn2)n1` [Example 100], for which the chromatographic logP (reversed-phase C18 HPLC column) came to 3.07. Same read-out and setting: for `CC(C)OC(=O)CSc1nccc(-c2ccccn2)n1` [Example 1, isopropyl {[4-(2-pyridinyl)-2-pyrimidinyl]thio}-acetate] the value was 2.56; for `COC(=O)C(Sc1nccc(-c2ccccn2)n1)c1ccccc1` (centres unmarked) [Example 26], 3.5. In the case of `O=C(CSc1nccc(-c2ccccn2)n1)NCc1ccccc1SC(F)(F)F` [Example 138], the chromatographic logP (reversed-phase C18 HPLC column) is 2.92. Still for that read-out and setting: for `O=C(CSc1nccc(-c2ccccn2)n1)OCC1CCCCC1` [Example 159] the value was 4; for `CC(C)CNC(=O)CSc1nccc(-c2ccccn2)n1` [Example 32], 1.81; for `O=C(CSc1nccc(-c2ccccn2)n1)OCC(F)(F)F` [Example 117], 2.69. On the same count and under the same terms, for `CCOC(=O)/C=C/CSc1nccc(-c2ccccn2)n1` [Example 30] the value was 2.92. The same measure, in the same setting: the figure for `O=C(CSc1nccc(-c2ccccn2)n1)NCCc1ccc(Cl)cc1Cl` [Example 41] is 2.83; for `O=C(CSc1nccc(-c2ccccn2)n1)OC1COC1` [Example 249] it is 1.69.

Regarding `COCN(C)C(=O)COC(=O)CSc1nccc(-c2ccccn2)n1` [Example 230], the chromatographic logP (reversed-phase C18 HPLC column) came to 1.96.

As for `O=C(CSc1nccc(-c2ccccn2)n1)OCCOCC(F)(F)F` [Example 236], the chromatographic logP (reversed-phase C18 HPLC column) amounted to 2.7. The same measure, in the same setting: the figure for `CCOC(=O)CSc1nccc(-c2ccc(Cl)cn2)n1` [Example 256] is 3.23; for `CO/N=C/C(C)OC(=O)CSc1nccc(-c2ccccn2)n1` (centres unmarked) [Example 212] it is 2.13; for `O=C(CSc1nccc(-c2ccccn2)n1)NCc1ccc(Cl)c(Cl)c1` [Example 44] it is 2.64.

For `COC(=O)CSc1nc(-c2ccccn2)cc(-c2ccccn2)n1` [Example 101], for the setting “reversed-phase C18 HPLC column”, the chromatographic logP was found to be 2.81. On the same count and under the same terms, for `O=C(NCCOC(=O)CSc1nccc(-c2ccccn2)n1)Nc1ccc(C(F)(F)F)cc1` [Example 147] the value was 3.04; for `COC(=O)CCCOC(=O)CSc1nccc(-c2ccccn2)n1` [Example 200], 2.21; for `N#CCSc1nccc(-c2ccccn2)n1` [{[4-(2-pyridinyl)-2-pyrimidinyl]thio}acetonitrile], 1.68. `CCOC(=O)CSc1nccc(-c2ncccc2F)n1` [Example 281]: the chromatographic logP (reversed-phase C18 HPLC column) was 2.04. On the same count and under the same terms, the figure for `COC(=O)CSc1nccc(-c2cc(C)ccn2)n1` [Example 103] is 1.8.
